From ChEMBL document CHEMBL3886420, “Substituted pyrimidine compounds and their use as SYK inhibitors” (2015)

Target: Tyrosine-protein kinase SYK (Homo sapiens, UniProt P43405)
Assay: Inhibition Assay: Compounds of the invention were initially diluted to 10 mM in 100% DMSO (CALBIOCHEM) for storage and made into kinase buffer solution to create a compound concentration ranging from 1 uM and 10 uM. Serial dilutions of compounds of the invention were dispensed into a 96-well plate (GREINER BIOSCIENCES) at 6 uL each. Purified full-length human SYK (CARNA BIOSCIENCES) were diluted …

In the case of `CCOC(=O)n1cc(C(C)=O)c2cc(Nc3nccc(-n4cc(CN5C[C@H](O)CO5)c(C)n4)n3)ccc21`, the IC50 is reported as 45.6 nM.
